Measurements published in ChEMBL document CHEMBL4627384, “l-Thyroxin and the Nonclassical Thyroid Hormone TETRAC Are Potent Activators of PPARγ” (J Med Chem, 2020).
Activity calls are given as the source filed them. The calls are words filed in the database; no cut-off is given here.

Target: T1, Peroxisome proliferator-activated receptor gamma (Homo sapiens) (UniProt P37231)
T1 sequence (whole entry): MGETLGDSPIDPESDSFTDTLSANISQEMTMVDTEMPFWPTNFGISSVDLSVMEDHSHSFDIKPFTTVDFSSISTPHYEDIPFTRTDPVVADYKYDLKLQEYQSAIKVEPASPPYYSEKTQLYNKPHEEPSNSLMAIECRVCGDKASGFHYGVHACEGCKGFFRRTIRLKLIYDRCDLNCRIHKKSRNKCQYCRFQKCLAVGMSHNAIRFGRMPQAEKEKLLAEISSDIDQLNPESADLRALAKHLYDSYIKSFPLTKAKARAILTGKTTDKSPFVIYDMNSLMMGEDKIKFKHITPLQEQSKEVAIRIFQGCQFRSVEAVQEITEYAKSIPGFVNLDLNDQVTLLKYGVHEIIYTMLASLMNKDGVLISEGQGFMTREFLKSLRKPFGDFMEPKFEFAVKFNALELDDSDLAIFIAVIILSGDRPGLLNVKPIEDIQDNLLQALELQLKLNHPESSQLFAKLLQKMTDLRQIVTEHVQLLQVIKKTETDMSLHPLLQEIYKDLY
Experiment: Agonist activity at PPARgamma in human HepG2 cells assessed as induction of CD36 mRNA expression at 0.03 to 1 uM incubated for 8 hrs by qPCR analysis
Type: cell-based

## O=C(O)Cc1cc(I)c(Oc2cc(I)c(O)c(I)c2)c(I)c1 [TETRAC]
  Activity: Active
